Measurements reported in patent US9469650B2, “Melampomagnolide B derivatives” (BOARD OF TRUSTEES OF THE UNIVERSITY OF ARKANSAS, priority 2013, dated 2016).

Columns and labels:
SNB-19 = experiment: panel of 60 human tumor cell lines, growth inhibition (CNS Cancer); conditions: SNB-19
PC-3 = experiment: panel of 60 human tumor cell lines, growth inhibition (Prostate Cancer); conditions: PC-3
OVCAR-5 = experiment: panel of 60 human tumor cell lines, growth inhibition (Ovarian Cancer); conditions: OVCAR-5
SF-295 = experiment: panel of 60 human tumor cell lines, growth inhibition (CNS Cancer); conditions: SF-295
SW-620 = experiment: panel of 60 human tumor cell lines, growth inhibition (Colon Cancer); conditions: SW-620
UACC-257 = experiment: panel of 60 human tumor cell lines, growth inhibition (Melanoma); conditions: UACC-257
MDA-MB-231/ATCC = experiment: panel of 60 human tumor cell lines, growth inhibition (Breast Cancer); conditions: MDA-MB-231/ATCC
SF-268 = experiment: panel of 60 human tumor cell lines, growth inhibition (CNS Cancer); conditions: SF-268
LOX IMVI = experiment: panel of 60 human tumor cell lines, growth inhibition (Melanoma)
HOP-92 = experiment: panel of 60 human tumor cell lines, growth inhibition (Non-Small Cell Lung Cancer); conditions: HOP-92
HOP-62 = experiment: as above; conditions: HOP-62
SN12C = experiment: panel of 60 human tumor cell lines, growth inhibition (Renal Cancer)
A498 = experiment: as above; conditions: A498
IGROV1 = experiment: panel of 60 human tumor cell lines, growth inhibition (Ovarian Cancer); conditions: IGROVI
U251 = experiment: panel of 60 human tumor cell lines, growth inhibition (CNS Cancer); conditions: U251
A549/ATCC = experiment: panel of 60 human tumor cell lines, growth inhibition (Non-Small Cell Lung Cancer); conditions: A549/ATCC
CAKI-1 = experiment: panel of 60 human tumor cell lines, growth inhibition (Renal Cancer); conditions: CAKI-1
HCC-2998 = experiment: panel of 60 human tumor cell lines, growth inhibition (Colon Cancer); conditions: HCC-2998
NCI-H522 = experiment: panel of 60 human tumor cell lines, growth inhibition (Non-Small Cell Lung Cancer); conditions: NCI-H522

## C=C1C(=O)O[C@H]2[C@H]1CC/C(COC(=O)N1CCC(F)(F)CC1)=C\CC[C@@]1(C)O[C@@H]21 [JVM 2-66]
SNB-19
  GI50: 12.8 µM
  TGI: 2.84E−5
SNB-19; Log10 Concentration −4.0
  Percent Growth: −79%
SNB-19; Log10 Concentration −5.0
  Percent Growth: 66%
SNB-19; Log10 Concentration −6.0
  Percent Growth: 89%
SNB-19; Log10 Concentration −7.0
  Percent Growth: 91%
SNB-19; Log10 Concentration −8.0
  Percent Growth: 93%
PC-3
  GI50: 10.8 µM
  TGI: 2.41E−5
PC-3; Log10 Concentration −4.0
  Percent Growth: −89%
PC-3; Log10 Concentration −5.0
  Percent Growth: 55%
PC-3; Log10 Concentration −6.0
  Percent Growth: 97%
PC-3; Log10 Concentration −7.0
  Percent Growth: 99%
PC-3; Log10 Concentration −8.0
  Percent Growth: 101%
OVCAR-5
  GI50: 4.25 µM
  TGI: 1.60E−5
OVCAR-5; Log10 Concentration −4.0
  Percent Growth: −83%
OVCAR-5; Log10 Concentration −5.0
  Percent Growth: 21%
OVCAR-5; Log10 Concentration −6.0
  Percent Growth: 99%
OVCAR-5; Log10 Concentration −7.0
  Percent Growth: 90%
OVCAR-5; Log10 Concentration −8.0
  Percent Growth: 96%
SF-295
  GI50: 12 µM
  TGI: 2.49E−5
SF-295; Log10 Concentration −4.0
  Percent Growth: −96%
SF-295; Log10 Concentration −5.0
  Percent Growth: 63%
SF-295; Log10 Concentration −6.0
  Percent Growth: 91%
SF-295; Log10 Concentration −7.0
  Percent Growth: 91%
SF-295; Log10 Concentration −8.0
  Percent Growth: 95%
SW-620
  GI50: 1.46 µM
  TGI: 4.37E−6
SW-620; Log10 Concentration −4.0
  Percent Growth: −86%
SW-620; Log10 Concentration −5.0
  Percent Growth: −38%
SW-620; Log10 Concentration −6.0
  Percent Growth: 67%
SW-620; Log10 Concentration −7.0
  Percent Growth: 97%
SW-620; Log10 Concentration −8.0
  Percent Growth: 99%
UACC-257
  GI50: 2.34 µM
  TGI: 1.02E−5
UACC-257; Log10 Concentration −4.0
  Percent Growth: −90%
UACC-257; Log10 Concentration −5.0
  Percent Growth: 1%
UACC-257; Log10 Concentration −6.0
  Percent Growth: 79%
UACC-257; Log10 Concentration −7.0
  Percent Growth: 96%
UACC-257; Log10 Concentration −8.0
  Percent Growth: 94%
MDA-MB-231/ATCC
  GI50: 2.01 µM
  TGI: 6.59E−6
MDA-MB-231/ATCC; Log10 Concentration −4.0
  Percent Growth: −84%
MDA-MB-231/ATCC; Log10 Concentration −5.0
  Percent Growth: −18%
MDA-MB-231/ATCC; Log10 Concentration −6.0
  Percent Growth: 79%
MDA-MB-231/ATCC; Log10 Concentration −7.0
  Percent Growth: 92%
MDA-MB-231/ATCC; Log10 Concentration −8.0
  Percent Growth: 101%
SF-268
  GI50: 10.7 µM
  TGI: 2.47E−5
SF-268; Log10 Concentration −4.0
  Percent Growth: −84%
SF-268; Log10 Concentration −5.0
  Percent Growth: 54%
SF-268; Log10 Concentration −6.0
  Percent Growth: 95%
SF-268; Log10 Concentration −7.0
  Percent Growth: 93%
SF-268; Log10 Concentration −8.0
  Percent Growth: 95%
LOX IMVI
  GI50: 2.23 µM
  TGI: 5.77E−6
LOX IMVI; Log10 Concentration −4.0
  Percent Growth: −89%
LOX IMVI; Log10 Concentration −5.0
  Percent Growth: −29%
LOX IMVI; Log10 Concentration −6.0
  Percent Growth: 92%
LOX IMVI; Log10 Concentration −7.0
  Percent Growth: 93%
LOX IMVI; Log10 Concentration −8.0
  Percent Growth: 96%
HOP-92
  GI50: 1.45 µM
  TGI: 3.89E−6
HOP-92; Log10 Concentration −4.0
  Percent Growth: −94%
HOP-92; Log10 Concentration −5.0
  Percent Growth: −48%
HOP-92; Log10 Concentration −6.0
  Percent Growth: 69%
HOP-92; Log10 Concentration −7.0
  Percent Growth: 92%
HOP-92; Log10 Concentration −8.0
  Percent Growth: 95%
HOP-62
  GI50: 13.6 µM
  TGI: 2.81E−5
HOP-62; Log10 Concentration −4.0
  Percent Growth: −87%
HOP-62; Log10 Concentration −5.0
  Percent Growth: 71%
HOP-62; Log10 Concentration −6.0
  Percent Growth: 93%
HOP-62; Log10 Concentration −7.0
  Percent Growth: 92%
HOP-62; Log10 Concentration −8.0
  Percent Growth: 101%
SN12C
  GI50: 2.72 µM
  TGI: 1.06E−5
SN12C; Log10 Concentration −4.0
  Percent Growth: −89%
SN12C; Log10 Concentration −5.0
  Percent Growth: 3%
SN12C; Log10 Concentration −6.0
  Percent Growth: 86%
SN12C; Log10 Concentration −7.0
  Percent Growth: 94%
SN12C; Log10 Concentration −8.0
  Percent Growth: 98%
A498
  GI50: 1.59 µM
  TGI: 6.87E−6
A498; Log10 Concentration −4.0
  Percent Growth: −93%
A498; Log10 Concentration −5.0
  Percent Growth: −13%
A498; Log10 Concentration −6.0
  Percent Growth: 66%
A498; Log10 Concentration −7.0
  Percent Growth: 73%
A498; Log10 Concentration −8.0
  Percent Growth: 84%
IGROV1
  GI50: 2.31 µM
  TGI: 7.26E−6
IGROV1; Log10 Concentration −4.0
  Percent Growth: −60%
IGROV1; Log10 Concentration −5.0
  Percent Growth: −14%
IGROV1; Log10 Concentration −6.0
  Percent Growth: 87%
IGROV1; Log10 Concentration −7.0
  Percent Growth: 106%
IGROV1; Log10 Concentration −8.0
  Percent Growth: 107%
U251
  TGI: 2.66E−5
U251; Log10 Concentration −4.0
  Percent Growth: −99%
U251; Log10 Concentration −5.0
  Percent Growth: 73%
U251; Log10 Concentration −6.0
  Percent Growth: 92%
U251; Log10 Concentration −7.0
  Percent Growth: 96%
U251; Log10 Concentration −8.0
  Percent Growth: 96%
A549/ATCC
  GI50: 11.3 µM
  TGI: 2.74E−5
A549/ATCC; Log10 Concentration −4.0
  Percent Growth: −73%
A549/ATCC; Log10 Concentration −5.0
  Percent Growth: 57%
A549/ATCC; Log10 Concentration −6.0
  Percent Growth: 93%
A549/ATCC; Log10 Concentration −7.0
  Percent Growth: 97%
A549/ATCC; Log10 Concentration −8.0
  Percent Growth: 98%
CAKI-1
  GI50: 2.03 µM
  TGI: 6.16E−6
CAKI-1; Log10 Concentration −4.0
  Percent Growth: −97%
CAKI-1; Log10 Concentration −5.0
  Percent Growth: −22%
CAKI-1; Log10 Concentration −6.0
  Percent Growth: 82%
CAKI-1; Log10 Concentration −7.0
  Percent Growth: 91%
CAKI-1; Log10 Concentration −8.0
  Percent Growth: 97%
HCC-2998
  GI50: 6.24 µM
  TGI: 2.11E−5
HCC-2998; Log10 Concentration −4.0
  Percent Growth: −77%
HCC-2998; Log10 Concentration −5.0
  Percent Growth: 37%
HCC-2998; Log10 Concentration −6.0
  Percent Growth: 101%
HCC-2998; Log10 Concentration −7.0
  Percent Growth: 91%
HCC-2998; Log10 Concentration −8.0
  Percent Growth: 96%
NCI-H522
  GI50: 1.25 µM
  TGI: 2.75E−6
NCI-H522; Log10 Concentration −4.0
  Percent Growth: −80%
NCI-H522; Log10 Concentration −5.0
  Percent Growth: −81%
NCI-H522; Log10 Concentration −6.0
  Percent Growth: 64%
NCI-H522; Log10 Concentration −7.0
  Percent Growth: 92%
NCI-H522; Log10 Concentration −8.0
  Percent Growth: 91%
